Experimental data: US12202823B2 (QUIMATRYX, S.L., priority 2019, dated 2025)

Each compound was assayed against hHDAC6 (Homo sapiens (Human), UniProt Q9UBN7) (assay: HDAC6 inhibition protocol). Conditions: read-out: IC50 (nM) of enzyme activity HDAC6; hHDAC6 1.20 nM, Acetylated Peptide A 2 μM, 1 hour at RT.
Sequence of hHDAC6 (Q9UBN7 whole entry): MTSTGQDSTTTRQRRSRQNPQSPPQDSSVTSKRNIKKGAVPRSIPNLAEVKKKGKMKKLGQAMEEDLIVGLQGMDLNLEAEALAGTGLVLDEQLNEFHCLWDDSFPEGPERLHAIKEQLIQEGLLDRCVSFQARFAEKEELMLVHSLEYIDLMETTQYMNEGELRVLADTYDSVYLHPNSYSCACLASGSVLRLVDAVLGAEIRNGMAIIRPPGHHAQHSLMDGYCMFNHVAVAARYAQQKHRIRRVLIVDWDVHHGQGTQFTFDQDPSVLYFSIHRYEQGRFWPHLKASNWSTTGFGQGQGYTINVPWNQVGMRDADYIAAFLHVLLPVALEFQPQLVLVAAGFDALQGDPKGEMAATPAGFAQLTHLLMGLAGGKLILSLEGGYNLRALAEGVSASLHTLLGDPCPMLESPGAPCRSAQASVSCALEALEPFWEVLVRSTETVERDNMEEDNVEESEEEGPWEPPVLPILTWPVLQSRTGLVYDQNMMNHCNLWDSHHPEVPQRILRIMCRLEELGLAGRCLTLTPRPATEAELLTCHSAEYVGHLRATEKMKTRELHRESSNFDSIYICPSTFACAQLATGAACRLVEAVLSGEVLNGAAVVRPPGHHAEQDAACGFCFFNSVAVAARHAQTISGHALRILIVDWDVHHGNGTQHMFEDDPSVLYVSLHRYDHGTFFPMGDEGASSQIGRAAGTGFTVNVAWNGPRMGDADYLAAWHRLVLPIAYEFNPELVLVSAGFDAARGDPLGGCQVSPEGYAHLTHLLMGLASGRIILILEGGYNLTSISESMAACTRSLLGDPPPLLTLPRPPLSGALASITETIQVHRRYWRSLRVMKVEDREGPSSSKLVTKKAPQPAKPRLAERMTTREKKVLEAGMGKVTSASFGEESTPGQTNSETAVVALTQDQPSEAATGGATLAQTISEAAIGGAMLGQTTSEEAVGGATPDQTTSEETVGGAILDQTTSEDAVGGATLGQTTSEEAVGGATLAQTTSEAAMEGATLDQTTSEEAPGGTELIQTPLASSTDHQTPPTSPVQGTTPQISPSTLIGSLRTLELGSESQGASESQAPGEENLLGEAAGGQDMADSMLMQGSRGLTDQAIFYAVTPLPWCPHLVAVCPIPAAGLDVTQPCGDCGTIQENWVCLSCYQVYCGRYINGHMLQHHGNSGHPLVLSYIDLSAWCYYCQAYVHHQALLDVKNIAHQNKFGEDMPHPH
Protocol: After enzymatic reactions, reaction was stopped by adding 5 μl of 10 μM solution of a known inhibitor. The fluorescent signal of substrate and product was measured by means of microfluidics mobility assay in a EZ Reader II equipment. The percentage of conversion of substrate into product was calculated by the equipment software based on the area of the peaks.
The percentage of conversion data were analyzed using the computer software, Graphpad Prism. In the absence of the compound, the conversion (Ct) in each data set was defined as 100% activity. In the absence of HDAC, the conversion (Cb) in each data set was defined as 0% activity. The percent activity in the presence of each compound was calculated according to the following equation: % inhibition=(Ct−C)/(Ct−Cb), where C=the percentage of conversion in the presence of the compound.
The values of % inhibition versus a series of compound concentrations were then plotted using non-linear regression analysis of Sigmoidal dose-response curve generated with the equation Y=B+(T−B)/1+10((Log EC50−X)×Hill Slope), where Y=percent inhibition, B=minimum percent inhibition, T=maximum percent inhibition, X=logarithm of compound and Hill Slope=slope factor or Hill coefficient. The IC50 value was determined by the concentration causing a half-maximal percent activity.
The buffer assay used in the inhibition hHDAC6 assay is: Hepes 50 mM, KCl 100 mM, Tween 20 0.001%, BSA 0.01%; pH=7.4.
With `FC(F)c1nnc(-c2ccc(Cn3nnc4cc(Br)ccc43)nc2)o1` [Example 64, 2-(6-((5-bromo-1H-benzo[d][1,2,3]triazol-1-yl)methyl)pyridin-3-yl)-5-(difluoromethyl)-1,3,4-oxadiazole] the IC50 was 48.7 nM. `FC(F)c1nnc(-c2ccc(Cn3cc(-c4ccccc4Cl)nn3)nc2)o1` [Example 44, 2-(6-((4-(2-chlorophenyl)-1H-1,2,3-triazol-1-yl)methyl)pyridin-3-yl)-5-(difluoromethyl)-1,3,4-oxadiazole] showed an IC50 of 37.1 nM. `O=C1c2ccccc2C(=O)N1Cc1ccc(-c2nnc(C(F)F)o2)cc1` [Example 16, 2-(4-(5-(difluoromethyl)-1,3,4-oxadiazol-2-yl)benzyl)isoindoline-1,3-dione] gave an IC50 of 258 nM. With `FC(F)c1nnc(-c2ccc(Cn3ccc4cccnc43)cc2)o1` [Example 4, 2-(4-((1H-pyrrolo[2,3-b]pyridin-1-yl)methyl)phenyl)-5-(difluoromethyl)-1,3,4-oxadiazole] the IC50 was 1760 nM. `FC(F)c1nnc(-c2ccc(Cn3nnc4ccc(Cl)cc43)cc2)o1` [Example 13, 2-(4-((6-chloro-1H-benzo[d][1,2,3]triazol-1-yl)methyl)phenyl)-5-(difluoromethyl)-1,3,4-oxadiazole] gave an IC50 of 129 nM. `FC(F)c1nnc(-c2ccc(Cn3cc(-c4ccccc4)nn3)nc2)o1` [Example 41, 2-(difluoromethyl)-5-(6-((4-phenyl-1H-1,2,3-triazol-1-yl)methyl)pyridin-3-yl)-1,3,4-oxadiazole] was tested, and the IC50 was 40.9 nM. `Cc1cc2ncn(Cc3ccc(-c4nnc(C(F)F)o4)cn3)c2cc1C` [Example 61, 2-(difluoromethyl)-5-(6-((5,6-dimethyl-1H-benzo[d]imidazol-1-yl)methyl)pyridin-3-yl)-1,3,4-oxadiazole] showed an IC50 of 187 nM. `COC(=O)c1cn(Cc2ccc(-c3nnc(C(F)F)o3)cc2)nn1` [Example 28, methyl 1-(4-(5-(difluoromethyl)-1,3,4-oxadiazol-2-yl)benzyl)-1H-1,2,3-triazole-4-carboxylate] was tested, and the IC50 was 2800 nM. Work on `FC(F)c1nnc(-c2ccc(Cn3cnc(-c4ccccc4)c3)nc2)o1` [Example 26, 2-(difluoromethyl)-5-(6-((4-phenyl-1H-imidazol-1-yl)methyl)pyridin-3-yl)-1,3,4-oxadiazole] yielded an IC50 of 48.3 nM. `FC(F)c1nnc(-c2ccc(Cn3cc(-c4ccc(Cl)cc4)nn3)nc2)o1` [Example 43, 2-(6-((4-(4-chlorophenyl)-1H-1,2,3-triazol-1-yl)methyl)pyridin-3-yl)-5-(difluoromethyl)-1,3,4-oxadiazole] was tested, and the IC50 was 43.1 nM. `FC(F)c1nnc(-c2ccc(Cn3cnc4ccc(Br)cc43)nc2)o1` [Example 62, 2-(6-((6-bromo-1H-benzo[d]imidazol-1-yl)methyl)pyridin-3-yl)-5-(difluoromethyl)-1,3,4-oxadiazole] was tested, and the IC50 was 61.8 nM. Work on `CC(c1ccc(-c2nnc(C(F)F)o2)cc1)n1cc(-c2ccccc2)nn1` (centres unmarked) [Example 37, 2-(difluoromethyl)-5-(4-(1-(4-phenyl-1H-1,2,3-triazol-1-yl)ethyl)phenyl)-1,3,4-oxadiazole] yielded an IC50 of 149 nM. In the case of `FC(F)c1nnc(-c2ccc(Cn3cc(C4CCCCC4)nn3)cc2)o1` [Example 32, 2-(4-((4-cyclohexyl-1H-1,2,3-triazol-1-yl)methyl)phenyl)-5-(difluoromethyl)-1,3,4-oxadiazole], the IC50 is reported as 475 nM. Compound `Cc1nc2cc(Cl)c(Cl)cc2n1Cc1ccc(-c2nnc(C(F)F)o2)cn1` [Example 60, 2-(6-((5,6-dichloro-2-methyl-1H-benzo[d]imidazol-1-yl)methyl)pyridin-3-yl)-5-(difluoromethyl)-1,3,4-oxadiazole] has an IC50 of 42.3 nM. `O=C(c1cn(Cc2ccc(-c3nnc(C(F)F)o3)cc2)c2ccccc12)C(F)F` [Example 5, 1-(1-(4-(5-(difluoromethyl)-1,3,4-oxadiazol-2-yl)benzyl)-1H-indol-3-yl)-2,2-difluoroethanone] showed an IC50 of 239 nM. `FC(F)c1nnc(-c2ccc(Cn3nnc(-c4ccccc4Cl)c3Cl)nc2)o1` [Example 53, 2-(6-((5-chloro-4-(2-chlorophenyl)-1H-1,2,3-triazol-1-yl)methyl)pyridin-3-yl)-5-(difluoromethyl)-1,3,4-oxadiazole] gave an IC50 of 81.5 nM. Compound `Cc1cc2nnn(Cc3ccc(-c4nnc(C(F)F)o4)cn3)c2cc1C` [Example 59, 2-(difluoromethyl)-5-(6-((5,6-dimethyl-1H-benzo[d][1,2,3]triazol-1-yl)methyl)pyridin-3-yl)-1,3,4-oxadiazole] has an IC50 of 85.1 nM. `FC(F)c1nnc(-c2ccc(Cn3cc(-c4cc(Cl)cc(Cl)c4)nn3)nc2)o1` [Example 47, 2-(6-((4-(3,5-dichlorophenyl)-1H-1,2,3-triazol-1-yl)methyl)pyridin-3-yl)-5-(difluoromethyl)-1,3,4-oxadiazole] was tested, and the IC50 was 25.7 nM. Work on `FC(F)c1nnc(-c2ccc(Cn3ncc4ccccc43)cc2)o1` [Example 6, 2-(4-((1H-indazol-1-yl)methyl)phenyl)-5-(difluoromethyl)-1,3,4-oxadiazole] yielded an IC50 of 417 nM. Work on `FC(F)c1nnc(-c2ccc(Cn3cnc4cc(Cl)c(Cl)cc43)cc2)o1` [Example 10, 2-(4-((5,6-dichloro-1H-benzo[d]imidazol-1-yl)methyl)phenyl)-5-(difluoromethyl)-1,3,4-oxadiazole] yielded an IC50 of 60.2 nM. `CC(c1ccc(-c2nnc(C(F)F)o2)cc1)n1cnc2ccccc21` (centres unmarked) [Example 20, 2-(4-(1-(1H-benzo[d]imidazol-1-yl)ethyl)phenyl)-5-(difluoromethyl)-1,3,4-oxadiazole] was tested, and the IC50 was 589 nM. For `FC(F)c1nnc(-c2ccc(Cn3nnc4ccccc43)nc2)o1` [Example 21, 2-(6-((1H-benzo[d][1,2,3]triazol-1-yl)methyl)pyridin-3-yl)-5-(difluoromethyl)-1,3,4-oxadiazole], the IC50 was 103 nM. Compound `Fc1cc(-c2cn(Cc3ccc(-c4nnc(C(F)F)o4)cn3)nn2)cc(F)c1F` [Example 57, 2-(difluoromethyl)-5-(6-((4-(3,4,5-trifluorophenyl)-1H-1,2,3-triazol-1-yl)methyl)pyridin-3-yl)-1,3,4-oxadiazole] has an IC50 of 149 nM. `Cc1nnn(Cc2ccc(-c3nnc(C(F)F)o3)cc2)c1-c1ccccc1` [Example 40, 2-(difluoromethyl)-5-(4-((4-methyl-5-phenyl-1H-1,2,3-triazol-1-yl)methyl)phenyl)-1,3,4-oxadiazole] was tested, and the IC50 was 686 nM. `CC(C)(C)c1cn(Cc2ccc(-c3nnc(C(F)F)o3)cc2)nn1` [Example 31, 2-(4-((4-(tert-butyl)-1H-1,2,3-triazol-1-yl)methyl)phenyl)-5-(difluoromethyl)-1,3,4-oxadiazole] showed an IC50 of 273 nM. Work on `FC(F)c1nnc(-c2ccc(Cn3cc(-c4cccnc4)nn3)cc2)o1` [Example 34, 2-(difluoromethyl)-5-(4-((4-(pyridin-3-yl)-1H-1,2,3-triazol-1-yl)methyl)phenyl)-1,3,4-oxadiazole] yielded an IC50 of 202 nM. Work on `FC(F)c1nnc(-c2ccc(Cn3nnc(-c4ccccc4)c3-c3ccccc3)cc2)o1` [Example 38, 2-(difluoromethyl)-5-(4-((4,5-diphenyl-1H-1,2,3-triazol-1-yl)methyl)phenyl)-1,3,4-oxadiazole] yielded an IC50 of 266 nM. Work on `FC(F)c1nnc(-c2ccc(Cn3cc(-c4cccs4)nn3)cc2)o1` [Example 36, 2-(difluoromethyl)-5-(4-((4-(thiophen-2-yl)-1H-1,2,3-triazol-1-yl)methyl)phenyl)-1,3,4-oxadiazole] yielded an IC50 of 105 nM. In the case of `FC(F)c1nnc(-c2ccc(Cn3nnc4ccc(Br)cc43)nc2)o1` [Example 65, 2-(6-((6-bromo-1H-benzo[d][1,2,3]triazol-1-yl)methyl)pyridin-3-yl)-5-(difluoromethyl)-1,3,4-oxadiazole], the IC50 is reported as 40.4 nM. Compound `FC(F)c1nnc(-c2ccc(C(Cl)n3cc(-c4ccccc4)nn3)nc2)o1` (centres unmarked) [Example 55, 2-(6-(chloro(4-phenyl-1H-1,2,3-triazol-1-yl)methyl)pyridin-3-yl)-5-(difluoromethyl)-1,3,4-oxadiazole] has an IC50 of 58.2 nM. `CC1(C)C(=O)N(Cc2ccc(-c3nnc(C(F)F)o3)cc2)c2ccccc21` [Example 15, 1-(4-(5-(difluoromethyl)-1,3,4-oxadiazol-2-yl)benzyl)-3,3-dimethylindolin-2-one] showed an IC50 of 214 nM. `FC(F)c1nnc(-c2ccc(Cn3nnnc3-c3ccccc3)cc2)o1` [Example 17, 2-(difluoromethyl)-5-(4-((5-phenyl-1H-tetrazol-1-yl)methyl)phenyl)-1,3,4-oxadiazole] gave an IC50 of 920 nM. `Fc1ccccc1-c1nnn(Cc2ccc(-c3nnc(C(F)F)o3)cn2)c1Cl` [Example 67, 2-(6-((5-chloro-4-(2-fluorophenyl)-1H-1,2,3-triazol-1-yl)methyl)pyridin-3-yl)-5-(difluoromethyl)-1,3,4-oxadiazole] gave an IC50 of 67.4 nM. Work on `Fc1cccc(F)c1-c1cn(Cc2ccc(-c3nnc(C(F)F)o3)cn2)nn1` [Example 49, 2-(difluoromethyl)-5-(6-((4-(2,6-difluorophenyl)-1H-1,2,3-triazol-1-yl)methyl)pyridin-3-yl)-1,3,4-oxadiazole] yielded an IC50 of 66.7 nM. `FC(F)c1nnc(-c2ccc(Cn3cc(-c4ccc(C(F)(F)F)cc4)nn3)cc2)o1` [Example 30, 2-(difluoromethyl)-5-(4-((4-(4-(trifluoromethyl)phenyl)-1H-1,2,3-triazol-1-yl)methyl)phenyl)-1,3,4-oxadiazole] gave an IC50 of 238 nM. For `Fc1cc(F)cc(-c2cn(Cc3ccc(-c4nnc(C(F)F)o4)cn3)nn2)c1` [Example 56, 2-(difluoromethyl)-5-(6-((4-(3,5-difluorophenyl)-1H-1,2,3-triazol-1-yl)methyl)pyridin-3-yl)-1,3,4-oxadiazole], the IC50 was 66.5 nM. Work on `FC(F)c1nnc(-c2ccc(Cn3nnc(-c4ccccc4)c3Cl)cc2)o1` [Example 51, 2-(4-((5-chloro-4-phenyl-1H-1,2,3-triazol-1-yl)methyl)phenyl)-5-(difluoromethyl)-1,3,4-oxadiazole] yielded an IC50 of 87.9 nM. Work on `FC(F)c1nnc(-c2ccc(Cn3nnc(-c4ccccc4)c3Cl)nc2)o1` [Example 52, 2-(6-((5-chloro-4-phenyl-1H-1,2,3-triazol-1-yl)methyl)pyridin-3-yl)-5-(difluoromethyl)-1,3,4-oxadiazole] yielded an IC50 of 48.4 nM.
